“Also recorded” adds a separate entry of the source.
Key:
[1] = tested on: Swiss-Webster mice; details: mouse, in vivo
[2] = tested on: rodents; details: high doses, administered immediately after training, rodents (ref. 20); cited from earlier work
[3] = tested on: chronic morphine-dependent mice; assay: naloxone-precipitated withdrawal hyperalgesia in chronic morphine-dependent mice (tail-flick); details: naltrexone 0.1 ng/kg with naloxone, FIG. 9
[4] = several species, including rat and human (ref. 20); cited from earlier work
[5] = tested on: rodents and humans; details: moderately low doses (˜1 μg/kg), rodents and humans (refs. 20-22); cited from earlier work

SMILES: NC(CCC(=O)O)C(=O)O (racemic) [glutamic acid, dl-glutamic acid]
- duration of hyperalgesia, glutamic acid alone [1]: > 6 h
- effect on tail-flick latencies, glutamic acid alone [1]: long-lasting hyperalgesia

SMILES: CC(C)Cn1c(=O)n(C)c(=O)c2[nH]cnc21 [IBMX, 3-isobutyl-1-methylxanthine]
- effect on memory in passive avoidance tasks [2]: improve memory
- duration of hyperalgesia, IBMX alone [1]: > 3 h
- effect on tail-flick latencies, IBMX alone [1]: long-lasting hyperalgesia

SMILES: N[C@@H](CCC(=O)O)C(=O)[O-].[Na+] [MSG, monosodium glutamate]
- effect on tail-flick latencies, MSG alone, 10-fold-higher dose [1]: evokes hyperalgesia
- effect on tail-flick latencies, MSG alone, lower dose [1]: does not evoke significant hyperalgesia

SMILES: CN[C@H](CC(=O)O)C(=O)O [NMDA, N-methyl-D-aspartate]
- duration of hyperalgesia, NMDA alone [1]: > 5 h
- effect on tail-flick latencies, NMDA alone [1]: decreases in tail-flick latencies (indicating hyperalgesia)

SMILES: O=C1CC[C@@]2(O)[C@H]3Cc4ccc(O)c5c4[C@@]2(CCN3CC2CC2)[C@H]1O5 [NTX, naltrexone]
- effect of cotreatment with 1 pg/kg rolipram in normal mice [1]: prominent, long-lasting analgesia
- effect of delayed high-dose NTX on analgesia from rolipram 1 μg/kg plus CTX-B [1]: rapidly blocked
- effect of delayed much higher dose of NTX in MSG + NTX cotreated mice [1]: blocked both hyperalgesia and analgesia
- effect of high-dose NTX on analgesia from glutamic acid cotreatment [1]: rapid attenuation of the initially prominent analgesia
- effect of high-dose NTX on analgesia from non-narcotic cotreatment [1]: antagonized rapidly
- effect of second dose of NTX alone 24 h after initial cotreatment with rolipram 1 μg/kg [1]: evoked significant analgesia
- effect of second injection of high-dose NTX on NMDA-evoked hyperalgesia and NMDA+NTX analgesia [1]: rapid attenuation of the initially prominent hyperalgesia
- effect of ultra-low-dose NTX co-administered with thousand- to million-fold lower dose of rolipram [1]: remarkable degree of opioid receptor-mediated, long-lasting analgesia
- effect of ultra-low-dose NTX cotreatment on hyperalgesia evoked by glutamate, NMDA, IBMX or rolipram [1]: rapidly blocked and reversed to prominent, long-lasting analgesia
- effect on tail-flick latencies, cotreatment with 1 mg/kg NMDA [1]: blocked NMDA-evoked hyperalgesia, and resulted in prominent analgesia
- effect on tail-flick latencies, cotreatment with 1 mg/kg glutamic acid [1]: blocked glutamic-acid-evoked hyperalgesia, and resulted in prominent analgesia
- effect on tail-flick latencies, cotreatment with 10 mg/kg IBMX, high-dose NTX [1]: not only blocked IBMX-evoked hyperalgesia, but also blocked onset of analgesia during the first hour after dosing
- effect on tail-flick latencies, cotreatment with MSG 1 mg/kg [1]: Prominent analgesia
- effect on tail-flick latencies, cotreatment with rolipram 1 pg/kg [1]: remarkably similar degree of analgesia
- effect on tail-flick latencies, cotreatment with rolipram 1 μg/kg [1]: results in prominent analgesia
- effect on tail-flick latencies, inactivator alone (control) [1]: no alterations in tail-flick latencies
- effect on tail-flick latencies, cotreatment with 10 mg/kg IBMX, ultra-low-dose NTX ([1]; sc): blocked IBMX-evoked hyperalgesia, and resulted in prominent analgesia
- effect on tail-flick latencies, cotreatment with 10-fold-higher dose of MSG ([1]; sc): Prominent analgesia
- effect of ultra-low-dose naltrexone cotreatment on naloxone-precipitated withdrawal hyperalgesia [3]: rapidly converted to analgesia

SMILES: C[C@H](NC(=O)[C@@H](CC(=O)NO)Cc1ccccc1)C(=O)O [kelatorphan]
- effect of kelatorphan on analgesic response to 1 pg/kg rolipram plus 0.1 ng/kg NTX [1]: prolongs the duration of the analgesic response
- effect on baseline tail-flick latency, kelatorphan alone [1]: does not alter baseline tail-flick latency
- effect on tail-flick latencies, kelatorphan 0.1 mg/kg cotreatment with rolipram 1 pg/kg [1]: prominent analgesia
- effect on tail-flick latencies, kelatorphan 1 mg/kg cotreatment with rolipram 1 pg/kg [1]: elicits prominent analgesia

SMILES: Oc1ccc2c3c1O[C@H]1c4[nH]c5c(c4C[C@@]4(O)[C@@H](C2)N(CC2CC2)CC[C@]314)C[C@@]1(O)[C@H]2Cc3ccc(O)c4c3[C@@]1(CCN2CC1CC1)[C@H]5O4 [nor-BNI, nor-binaltorphimine]
- effect on tail-flick latencies, ultra-low-dose mu- or kappa-opioid receptor antagonist cotreatment with rolipram [1]: larger magnitude of analgesia

SMILES: CCOC(=O)C1=C[C@@H](OC(CC)CC)[C@H](NC(C)=O)[C@@H](N)C1 [oseltamivir]
- effect of cotreatment with 1 pg/kg rolipram in normal mice [1]: prominent, long-lasting analgesia

SMILES: COc1ccc(C2CNC(=O)C2)cc1OC1CCCC1 (stereo not drawn) [rolipram]
- effect on memory in passive avoidance tasks [2]: improve memory
- effect on tail-flick latencies, rolipram alone, 1 pg/kg [1]: no detectable hyperalgesic effect; also recorded: does not alter baseline tail-flick latency
- effect on tail-flick latencies, rolipram alone, 1 μg/kg [1]: acute hyperalgesic effects
- persistence of effect of a single low dose of rolipram [1]: still effective for more than one day
- absorption after oral administration [4]: absorbed fully and rapidly
- adverse side-effects [5]: relatively moderate adverse side-effects
- effect on memory behavior [5]: significant enhancement in memory behavior

SMILES: COC(=O)/C=C/C(=O)N[C@@H]1CC[C@@]2(O)[C@H]3Cc4ccc(O)c5c4[C@@]2(CCN3CC2CC2)[C@H]1O5 [β-FNA, β-funaltrexamine]
- effect on tail-flick latencies, ultra-low-dose mu- or kappa-opioid receptor antagonist cotreatment with rolipram [1]: block the acute hyperalgesic effects of rolipram and result in prominent analgesia
